Consider 9 compounds from PubChem BioAssay (NCI).

“And” between values parts separate entries of the source, which are not always exact repeats. Identical values can stand only once.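 Assay format: 96-well plates, 48-hour exposure. GI50: concentration for 50% inhibition of growth. Definition used: TGI = concentration required for complete inhibition of growth.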

Among the test systems are 786-0 renal; A498 renal; DU-145 prostate; HCT-15 colon; MCF7 breast; MOLT-4 leukemia; NCI/ADR-RES ovarian; OVCAR-3 ovarian; SF-295 CNS; U251 CNS.
Common to all, as to experiment: NCI tumour cell line growth inhibition, 48 h

`C/C(=N\NC(=S)N1CCCCCC1)c1cccc2cccnc12`: the TGI with 786-0 renal was over 86.9 µM; in the experiment with A498 renal, 54.9 µM; in the experiment with DU-145 prostate, over 100 µM; in the experiment on HCT-15 colon it was over 21.9 µM; with MCF7 breast it was over 100 µM; in the experiment on MOLT-4 leukemia, over 100 µM. Further, the TGI in the experiment on NCI/ADR-RES ovarian is 5.42 µM; in the experiment with OVCAR-3 ovarian, 0.567 µM; in the experiment on SF-295 CNS it was over 21 µM; in the experiment on U251 CNS, over 29.2 µM.
Take `COc1cc(C)c2sc3ccccc3c(=O)c2c1NCCN(C)C`: the GI50 is 8.34 µM in the experiment on 786-0 renal; 8.83 µM with A498 renal; 7 µM in the experiment on DU-145 prostate; 3.13 µM in the experiment on HCT-15 colon; 2.4 µM in the experiment on MCF7 breast; 2.58 µM in the experiment on MOLT-4 leukemia. Also, the GI50 with NCI/ADR-RES ovarian is 12.4 µM; with OVCAR-3 ovarian, 10.5 µM; with SF-295 CNS, 6.25 µM; in the experiment on U251 CNS, 3.66 µM. The TGI in the experiment with 786-0 renal was 22.2 µM; in the experiment on A498 renal, 22.1 µM; in the experiment on DU-145 prostate, 20 µM; in the experiment on HCT-15 colon, 11.2 µM; in the experiment with MCF7 breast, 10.2 µM; in the experiment with MOLT-4 leukemia, 6.81 µM. The TGI in the experiment on NCI/ADR-RES ovarian worked out at 27 µM; with OVCAR-3 ovarian, 23.9 µM; with SF-295 CNS, 19.5 µM; in the experiment on U251 CNS it was 14.1 µM.
`CCN1C(=NCCO)NS(=O)(=O)c2ccccc21`: the TGI in the experiment with 786-0 renal, in the experiment with A498 renal, with DU-145 prostate, in the experiment on HCT-15 colon, in the experiment with MCF7 breast and with MOLT-4 leukemia was over 100 µM each time. The TGI with NCI/ADR-RES ovarian, in the experiment with OVCAR-3 ovarian, with SF-295 CNS and in the experiment on U251 CNS was over 100 µM each time.
In the case of `CN1CCN(c2nc(-c3csc(-c4cccs4)n3)cc3ccccc23)CC1`, the GI50 was 1.64 µM with 786-0 renal; 1.47 µM in the experiment with A498 renal; 1.8 µM in the experiment with DU-145 prostate; 1.63 µM with HCT-15 colon; 1.63 µM in the experiment on MCF7 breast; 2.03 µM in the experiment with MOLT-4 leukemia. For the same compound, the GI50 was 1.93 µM in the experiment on NCI/ADR-RES ovarian, 1.84 µM in the experiment on OVCAR-3 ovarian, 1.82 µM in the experiment with SF-295 CNS and 1.66 µM in the experiment with U251 CNS. The TGI in the experiment with 786-0 renal turned out to be 3.15 µM; with A498 renal it was 3.27 µM; in the experiment on DU-145 prostate it was 3.34 µM; in the experiment on HCT-15 colon, 3.15 µM; with MCF7 breast, 3.2 µM; in the experiment with MOLT-4 leukemia it was 4.15 µM. For the same compound, the TGI is 3.92 µM with NCI/ADR-RES ovarian, 3.64 µM with OVCAR-3 ovarian, 3.39 µM with SF-295 CNS and 3.29 µM in the experiment with U251 CNS.
Consider `Cl.Fc1c[c-]c(-c2ccccn2)c(F)c1.[Pt].c1ccc([PH+](C[PH+](c2ccccc2)c2ccccc2)c2ccccc2)cc1`, for which the GI50 in the experiment with 786-0 renal was 0.211 µM; in the experiment on A498 renal, 0.239 µM; in the experiment with DU-145 prostate, 0.355 µM; in the experiment with MCF7 breast, 0.198 µM; in the experiment on NCI/ADR-RES ovarian, 1.61 µM; in the experiment with OVCAR-3 ovarian it was 0.184 µM. In addition, the TGI in the experiment with 786-0 renal came to 0.468 µM; with A498 renal, 0.721 µM; in the experiment on DU-145 prostate, 1.33 µM; with MCF7 breast it was 1.12 µM; in the experiment on NCI/ADR-RES ovarian, 5.84 µM; in the experiment with OVCAR-3 ovarian, 0.442 µM.
As for `COc1ccc(-c2c3c(nc4n[nH]c(-c5ccc(Cl)cc5)c24)-c2ccccc2C(=O)C3=O)cc1`, the GI50 in the experiment with 786-0 renal is 2.01 µM; with A498 renal, 3.72 µM; in the experiment with DU-145 prostate it was 1.59 µM; in the experiment on MCF7 breast it was 1.46 µM; with MOLT-4 leukemia it was 2.44 µM; in the experiment on NCI/ADR-RES ovarian it was 2.64 µM. In addition, the GI50 was 1.28 µM with OVCAR-3 ovarian, 1.9 µM in the experiment with SF-295 CNS and 1.46 µM in the experiment on U251 CNS. For the same compound, the TGI was 4.59 µM with 786-0 renal; 17.6 µM with A498 renal; 2.96 µM with DU-145 prostate; 5.7 µM with MCF7 breast; 14.9 µM in the experiment with MOLT-4 leukemia; over 100 µM in the experiment on NCI/ADR-RES ovarian. The values for the TGI in the experiment on OVCAR-3 ovarian, in the experiment with SF-295 CNS and in the experiment with U251 CNS were 4.33 µM, 4.32 µM and 2.81 µM, respectively.
In the case of `COc1ccc2c(c1)-c1nn(CCCN(C)C)c3ccc([N+](=O)[O-])c(c13)N2`, the TGI is 7.68 µM and 12.2 µM in the experiment on 786-0 renal; 3.51 µM and 8.8 µM with A498 renal; 4.72 µM and 2.86 µM in the experiment on DU-145 prostate; 2.38 µM and 13.5 µM in the experiment on HCT-15 colon; 2.7 µM and 10.9 µM in the experiment with MCF7 breast; 2.93 µM and 1.42 µM with NCI/ADR-RES ovarian. The TGI in the experiment on OVCAR-3 ovarian is 3.95 µM and 7.29 µM; with SF-295 CNS, 3.76 µM and 3.07 µM; with U251 CNS, 4.94 µM and 14.7 µM. Further, the GI50 is 0.458 µM and 1.54 µM in the experiment with A498 renal; 0.142 µM and 0.541 µM in the experiment on HCT-15 colon; 0.339 µM and 1.11 µM with OVCAR-3 ovarian; 0.175 µM and 0.389 µM in the experiment on SF-295 CNS; 0.178 µM and 0.502 µM in the experiment on U251 CNS.
For `O=C1c2cccnc2C(=O)c2c1c(C(=O)OCCCN1CCCCC1)c1ccccn21`, the GI50 in the experiment on 786-0 renal is under 0.01 µM; with DU-145 prostate, under 0.01 µM; in the experiment with HCT-15 colon it was 0.01 µM; with MCF7 breast it was under 0.01 µM; in the experiment with MOLT-4 leukemia, 0.1 µM; with NCI/ADR-RES ovarian, under 0.01 µM. Besides, the GI50 is under 0.0218 µM in the experiment with OVCAR-3 ovarian, 0.01 µM in the experiment on SF-295 CNS and under 0.01 µM with U251 CNS. Moreover, the TGI with 786-0 renal is under 0.01 µM; in the experiment on DU-145 prostate, 1.29 µM; in the experiment with HCT-15 colon it was 0.422 µM; in the experiment with MCF7 breast it was under 0.015 µM; in the experiment with MOLT-4 leukemia, over 36.4 µM; with NCI/ADR-RES ovarian, 0.225 µM. Besides, the TGI in the experiment with OVCAR-3 ovarian was 0.156 µM; in the experiment with SF-295 CNS it was 0.0383 µM; in the experiment with U251 CNS it was 0.0372 µM.
`CCOc1ccc2c(c1)c(CC(=O)O)cn2C`: the TGI with 786-0 renal, in the experiment on DU-145 prostate, with HCT-15 colon, in the experiment on MCF7 breast, with MOLT-4 leukemia and in the experiment with NCI/ADR-RES ovarian was over 100 µM in each case. Besides, the TGI in the experiment on OVCAR-3 ovarian, in the experiment with SF-295 CNS and with U251 CNS was over 100 µM throughout.
